In patent publication US11051510B2, “Asymmetric formales and acetales as adjuvants for crop protection” (BASF SE, priority 2014, dated 2021):

Tested on: Puccinia recondita
Assay: Greenhouse test on wheat infected with Puccinia recondita at full and reduced dose rate (Example 12)
Format: in vivo, Puccinia recondita on wheat (species "Kanzler")
Conditions: for Infected leaf area at 25% dose rate: 2.5 g/ha pesticide (epoxiconazole) and 5 g/ha adjuvant; for Infected leaf area at 100% dose rate: 10 g/ha pesticide (epoxiconazole) and 20 g/ha adjuvant
Procedure: The biological activity was assessed in a greenhouse on wheat (species “Kanzler”), which was infected with Puccinia recondita at two leafs stage and incubated for three days at high humidity. The plants were sprayed (spray volume 200 l/ha) with a composition comprising 50 ppm (10 g/ha) epoxiconazole and 100 ppm (20 g/ha) of the respective adjuvant samples from Example 1-9. In the comparative example no adjuvant was added. The plants were further cultivated for ten days at 20-24° C. and 60-90% relative humidity. Finally, the percentage of the infected leaf area was visually inspected. Each value was based on three replicates.
The biological activity was assessed in a greenhouse as described in Example 11 with a dose rate of 10 g/ha pesticide and 20 g/ha adjuvant (“100%” in Table 4) and a reduced dose rate of 2.5 g/ha pesticide and 5 g/ha adjuvant (“25%” in Table 4). In this test the adjuvants from Example 1 (formula A), Example 2 (formula B) and as comparative adjuvant butyl endcapped ethoxylated (5EO) n-dodecanol (formula C) were compared. All three compounds are butyl endcapped. Formula A and C have the same degree of ethoxylation of five ethylene oxide (EO) units. Formula B (only 3 EO) and C have a similar overall molecule weight. n-C12-18—[O—CH2—CH2]5—O—CH2—O—CH2—CH2—O—Bu (A) n-C12-18—[O—CH2—CH2]3—O—CH2—O—CH2—CH2—O—Bu (B) n-C12[O—CH2—CH2]5—Bu (C)

Substance | Infected leaf area at 25% dose rate [%] | Infected leaf area at 100% dose rate [%]
butyl endcapped ethoxylated (5EO) n-dodecanol [(C), reference compound] | 38 | 8
n-C12-18—[O—CH2—CH2]3—O—CH2—O—CH2—CH2—O—Bu [(B)] | 13 | 6
n-C12-18—[O—CH2—CH2]5—O—CH2—O—CH2—CH2—O—Bu [(A)] | 23 | 7
